Experimental data from article PMC12040169 (PLOS Biology, 2025).

Experiment: in vitro
Conditions: human, hela cells, % viability

Structure (SMILES): CCCc1[nH]nc(O)c1CCc1ccccc1 [CBK075083]
- viability at 28.5 h, 10 µM: 108%

Structure (SMILES): CN(CP(=O)(O)CCc1ccccc1)S(C)(=O)=O [CBK263068]
- viability at 28.5 h, 10 µM: 95.1%

Structure (SMILES): N#CC(C(N)=O)C(c1ccc(Br)cc1)c1c(-c2ccccc2)nn(-c2nc(-c3ccccc3)cs2)c1O (centres unmarked) [CBK262697]
- viability at 28.5 h, 10 µM: 107%

Structure (SMILES): O=C(CSc1nnc(-c2ccc(Cl)cc2)n1-c1ccccc1)N/N=C/c1ccco1 [CBK262996]
- viability at 28.5 h, 10 µM: 91.6%

Structure (SMILES): COc1ncc(-c2nccnc2N2CCN(C)CC2)c(OC)n1 [CBK036595]
- viability at 28.5 h, 10 µM: 98.7%

Structure (SMILES): O=S(=O)(CC(CN1CCCCC1)N1CCCCC1)c1ccc2ccccc2c1 (centres unmarked) [CBK267087]
- viability at 28.5 h, 10 µM: 100%

Structure (SMILES): O=C1CCC[C@]2(CN(C(=O)C3CC3)C[C@H]2c2ccccc2F)N1 [CBK283357]
- viability at 28.5 h, 10 µM: 106%

Structure (SMILES): Cc1nn(C)c(Cl)c1CN1CCCC(CCC(=O)N2CCN(C)CC2)C1 (centres unmarked) [CBK307716]
- viability at 28.5 h, 10 µM: 92.5%

Structure (SMILES): COC(=O)CC[C@H]1CNC(=O)[C@@H]2[C@@H](CCN2C)N1C [CBK289020]
- viability at 28.5 h, 10 µM: 95.4%

Structure (SMILES): O=c1[nH]c2ncc(-c3cccc(CO)c3)nc2n1CC1CC1 [CBK065088]
- viability at 28.5 h, 10 µM: 63.9%

Structure (SMILES): COc1ccc([C@]23CC[C@H](NC(=O)Nc4ccc(C#N)c(Cl)c4)C[C@H]2N(C)CC3)cc1OC [CBK066928T]
- viability at 28.5 h, 10 µM (bulk resorufin, single well): 94.9%

Structure (SMILES): c1csc(-c2nccnc2OC2CCCCC2)c1 [CBK107060]
- viability at 28.5 h, 10 µM: 90.2%

Structure (SMILES): O=C(OCn1nnc2ccccc2c1=O)c1cccc([N+](=O)[O-])c1 [CBK264887]
- viability at 28.5 h, 10 µM: 104%

Structure (SMILES): C=C(C)Cn1c(SC(C)C)nnc1-c1cccnc1 [CBK200073]
- viability at 28.5 h, 10 µM: 85.7%

Structure (SMILES): OCCn1c(S)nnc1-c1ccccc1 [CBK100025]
- viability at 28.5 h, 10 µM: 85.4%

Structure (SMILES): Cn1c(=O)c2cnc(-c3ccccc3Cl)nc2n(C)c1=O [CBK291219]
- viability at 28.5 h, 10 µM: 85.7%

Structure (SMILES): c1ccc(C(CCN2CCc3ccccc3C2)c2ccccc2)cc1 [CBK126404]
- viability at 28.5 h, 10 µM: 99.1%

Structure (SMILES): COc1cc(C)c(Nc2cccc(-c3ccsc3)n2)cc1OC [CBK037025]
- viability at 28.5 h, 10 µM: 104%

Structure (SMILES): O=[N+]([O-])c1ccc(S(=O)(=O)Nc2cccc3[nH]ccc23)cc1 [CBK159550]
- viability at 28.5 h, 10 µM: 87.1%

Structure (SMILES): O=S(=O)(c1ccc(C(F)(F)F)cc1Cl)N1CCN(Cc2ccc3cccc(O)c3n2)CC1 [CBK063073]
- viability at 28.5 h, 10 µM: 94.1%

Structure (SMILES): C[C@@H]1CN(C(=O)c2cc3ccccc3n2C)C[C@H](C)O1 [CBK200234]
- viability at 28.5 h, 10 µM: 91.4%

Structure (SMILES): Cc1nn(-c2ccccc2)c(C)c1C1CC(=O)Nc2c1cnn2C(C)C (centres unmarked) [CBK287925]
- viability at 28.5 h, 10 µM: 104%

Structure (SMILES): CC(=O)Nc1c(O)nc(SCC(=O)Nc2ccccc2C(N)=O)[nH]c1=O [CBK268031]
- viability at 28.5 h, 10 µM: 97.8%

Structure (SMILES): CC(C)c1nsc(NS(=O)(=O)c2cc(OCC(F)(F)F)ccc2OCC(F)(F)F)n1 [CBK051262]
- viability at 28.5 h, 10 µM: 106%

Structure (SMILES): CCc1cc(=O)[nH]c(-c2ccc(N(C)CC(C)O)nc2)n1 (centres unmarked) [CBK306484]
- viability at 28.5 h, 10 µM: 88.4%

Structure (SMILES): Cc1cc(-c2ccc(=O)n(CCNC(=O)C3CC3)n2)c(C)o1 [CBK284521]
- viability at 28.5 h, 10 µM: 93.2%

Structure (SMILES): CCC(=O)NCc1csc(-c2ccccc2)n1 [CBK092344]
- viability at 28.5 h, 10 µM: 90.1%

Structure (SMILES): COC(=O)c1ccccc1Oc1nc(OC)cc(OC)n1 [CBK092217]
- viability at 28.5 h, 10 µM: 110%

Structure (SMILES): CC(C)(C)NC(=O)C1C2CCC3(CC(=O)c4ccccc4O3)C21 (centres unmarked) [CBK284821]
- viability at 28.5 h, 10 µM: 81.8%

Structure (SMILES): COCCNC(=O)CC1Sc2ccccc2NC1=O (centres unmarked) [CBK268443]
- viability at 28.5 h, 10 µM: 98.9%

Structure (SMILES): O=C1NCC2(C/C=C/CCOc3ccccc31)CCN(C(=O)CCc1ccccc1)CC2 [CBK292017]
- viability at 28.5 h, 10 µM: 71.2%

Structure (SMILES): CC(=O)c1sc2nc(C)cc(C)c2c1N [CBK131882]
- viability at 28.5 h, 10 µM: 90.5%

Structure (SMILES): CC(=O)N1c2ccc(NC(=O)C3(C)CCCO3)cc2CC1C (centres unmarked) [CBK282702]
- viability at 28.5 h, 10 µM: 98.5%

Structure (SMILES): CCCn1c(O)nnc1-c1cccnc1 [CBK074889]
- viability at 28.5 h, 10 µM: 86.8%

Structure (SMILES): CCOC(=O)CNc1nc(OC)cc(OC)n1 [CBK093392]
- viability at 28.5 h, 10 µM: 86.7%

Structure (SMILES): CCCn1c(SCC(=O)N2CCN(S(=O)(=O)c3ccc(C)cc3C)CC2)n[nH]c1=O [CBK295590]
- viability at 28.5 h, 10 µM: 104%

Structure (SMILES): Cn1c(=O)c2c(ncn2CC(=O)Nc2ccc(OCc3ccccc3)cc2)n(C)c1=O [CBK130478]
- viability at 28.5 h, 10 µM: 89.8%

Structure (SMILES): COc1ccc(-n2c(C)c([N+](=O)[O-])c3ccc(O)cc32)cc1 [CBK115330]
- viability at 28.5 h, 10 µM: 85%

Structure (SMILES): O=S(=O)(c1ccc(F)cc1)c1nc(-c2cccs2)oc1N1CCN(Cc2ccccc2)CC1 [CBK267672]
- viability at 28.5 h, 10 µM: 89.7%

Structure (SMILES): Cc1cc(NS(=O)(=O)c2ccc(NC(=O)c3ccc(Br)cc3)cc2)no1 [CBK265371]
- viability at 28.5 h, 10 µM: 95.6%

Structure (SMILES): c1coc(CN2CCC(c3ccc4c(c3)OCO4)CC2)c1 [CBK284001]
- viability at 28.5 h, 10 µM: 90.3%

Structure (SMILES): Cc1nc(C)c(-c2csc(CC(C)n3cc(Cl)cn3)n2)o1 (centres unmarked) [CBK304710]
- viability at 28.5 h, 10 µM: 106%

Structure (SMILES): COc1cc(CN2CCNC(=O)C2CC(=O)O)cc(OC)c1 (centres unmarked) [CBK269752]
- viability at 28.5 h, 10 µM: 105%

Structure (SMILES): CCOC(=O)c1cnc2ccc(OC)cc2c1Nc1ccc(OC)cc1 [CBK095337]
- viability at 28.5 h, 10 µM: 93.7%

Structure (SMILES): CC(C)n1c(=O)oc2cc(S(=O)(=O)NC(c3ccccc3)c3ccccc3)ccc21 [CBK286350]
- viability at 28.5 h, 10 µM: 91.7%

Structure (SMILES): O=C1CCc2cc(S(=O)(=O)Nc3ccc(OCc4ccccc4)cc3)ccc2N1 [CBK286365]
- viability at 28.5 h, 10 µM: 90%

Structure (SMILES): CCNC(=O)C(C)NC(=O)c1cnn(-c2ccc(Br)cc2)c1C (centres unmarked) [CBK305021]
- viability at 28.5 h, 10 µM: 79.3%

Structure (SMILES): COc1ccc(OCC2CCN(C(=O)[C@@H]3C[C@@H]4C=C[C@H]3C4)CC2)cc1 [CBK282218]
- viability at 28.5 h, 10 µM: 93.5%

Structure (SMILES): O=c1[nH]c(=O)n([C@H]2C[C@H](O)[C@@H](CO)O2)cc1I [CBK200650]
- viability at 28.5 h, 10 µM: 96.5%

Structure (SMILES): C=C(C)Cn1c(Cc2ccccc2)nnc1SCC(C)C [CBK200082]
- viability at 28.5 h, 10 µM: 102%

Structure (SMILES): Cc1cc(C)n(C2CCN(Cc3c(C)nc4ccccn34)CC2)n1 [CBK281614]
- viability at 28.5 h, 10 µM: 83.4%

Structure (SMILES): CCOc1ccc(S(=O)(=O)NC(C)C(=O)O)cc1C (centres unmarked) [CBK270178]
- viability at 28.5 h, 10 µM: 114%

Structure (SMILES): Cc1cc(C)cc(OCc2nnc(SCC(=O)Nc3cc(C(F)(F)F)ccc3Cl)o2)c1 [CBK267890]
- viability at 28.5 h, 10 µM: 94.6%

Structure (SMILES): Cn1cnnc1C1CCN(C(=O)CC2OCCc3sccc32)CC1 (centres unmarked) [CBK304912]
- viability at 28.5 h, 10 µM: 90.2%

Structure (SMILES): Cc1ccc(NC(=O)c2c[nH]c(=O)[nH]c2=O)cc1 [CBK113246]
- viability at 28.5 h, 10 µM: 95.7%

Structure (SMILES): COc1ccc(CN2CCN(Cc3cccnc3)CC2)cc1OC [CBK074409G]
- viability at 28.5 h, 10 µM: 94.1%

Structure (SMILES): c1ccc2c(-c3cn4ccnc4c(NC4CCOCC4)n3)cccc2c1 [CBK038047]
- viability at 28.5 h, 10 µM: 89.9%

Structure (SMILES): Cc1c(CNC2(c3ccccc3F)CCCC2)c(=O)n(C)c(=O)n1C [CBK282986]
- viability at 28.5 h, 10 µM: 85.1%

Structure (SMILES): COc1ccnc(Cn2ncc(N3CCCC3)cc2=O)c1OC [CBK306672]
- viability at 28.5 h, 10 µM: 82.7%

Structure (SMILES): CCN1CCN(C2CCN(Cc3ccccc3[N+](=O)[O-])CC2)CC1 [CBK264631G]
- viability at 28.5 h, 10 µM: 98.1%

Structure (SMILES): CSc1ncc(C(=O)N2CCN3CCN(C)CC3C2)c(=O)[nH]1 (centres unmarked) [CBK307677]
- viability at 28.5 h, 10 µM: 104%

Structure (SMILES): C[C@H](c1ccccc1)N1C(=O)[C@@H]2CN(C(=O)CC(C)(C)C)CCN2C1=O [CBK289638]
- viability at 28.5 h, 10 µM: 89.5%

Structure (SMILES): O=C1CCCN1CCCNc1nccnc1-c1cccnc1 [CBK089246]
- viability at 28.5 h, 10 µM: 110%

Structure (SMILES): Sc1nnc(-c2ccncc2)n1/N=C/c1cccnc1 [CBK265336]
- viability at 28.5 h, 10 µM: 96.6%

Structure (SMILES): Cc1cc(-c2ccc(/N=C/c3cccc(O)c3O)c(C)c2)ccc1/N=C/c1cccc(O)c1O [CBK261613]
- viability at 28.5 h, 10 µM: 82.6%
